Several values for one entry are separate records, joined by “and”; a condition that tells them apart may be missing. Equal values may be shown once.
Key:
[1] = tested on: Hela nuclear extracts; experiment: Hela nuclear extract HDAC inhibitor assay (BPS Bioscience); assay type: biochemical; conditions: 10 µM
Summary of the method: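 HeLa nuclear extract (20-fold diluted) was incubated with […] HDAC Substrate 3, 5 µg BSA and compound (1% DMSO final) at 37 °C for 60 min, in duplicate. After 15 min with HDAC developer at room temperature, fluorescence was read at 360/460 nm and % activity normalized to no-compound and no-extract controls.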

[2] = tested on: UACC-62; experiment: NCI one-dose screen; assay type: cell-based, human; conditions: Melanoma UACC-62, 10 µM single dose
Description: (§1) All of the synthesised structures were selected and submitted to NCI based on computer modelling techniques and the degree of diversity of structures for the evaluation of their antiproliferative activity. The 20 synthesised compounds were selected with their respective NCI codes [NCS D-820157- NCS D-820176] for the inhibition percent assay at an initial single dose of 10 μM on the full NCI 60 cell panel, where the mean graph of the percent growth for all compounds on the full NCI cell panel is evaluated, compared to the untreated control cells (Supplementary Material). In vitro cell line inhibition % of all synthesised compounds is represented in (Table 1 of Supplementary Material).
(§2) All of the synthesised compounds (20) were submitted to NCI and selected for in vitro anticancer assay against a panel of 60 cancer cell lines. The methodology of assay and calculations is as reported.

[3] = tested on: SF-295; experiment: NCI one-dose screen; assay type: cell-based, human; conditions: CNS SF-295, 10 µM single dose
Description: as §1, §2

[4] = tested on: NCI/ADR-RES; experiment: NCI one-dose screen; assay type: cell-based, human; conditions: Ovarian NCI/ADR-RES, 10 µM single dose
Description: as §1, §2

[5] = tested on: NCI-H322M; experiment: NCI one-dose screen; assay type: cell-based, human; conditions: NSCLC NCI-H322M, 10 µM single dose
Description: as §1, §2

[6] = tested on: UACC-257; experiment: NCI one-dose screen; assay type: cell-based, human; conditions: Melanoma UACC-257, 10 µM single dose
Description: as §1, §2

[7] = tested on: SR; experiment: NCI one-dose screen; assay type: cell-based, human; conditions: Leukemia SR, 10 µM single dose
Description: as §1, §2

[8] = tested on: HCT-116; experiment: NCI one-dose screen; assay type: cell-based, human; conditions: Colon HCT-116, 10 µM single dose
Description: as §1, §2

[9] = tested on: SK-OV-3; experiment: NCI one-dose screen; assay type: cell-based, human; conditions: Ovarian SK-OV-3, 10 µM single dose
Description: as §1, §2

[10] = tested on: MOLT-4; experiment: NCI one-dose screen; assay type: cell-based, human; conditions: Leukemia MOLT-4, 10 µM single dose
Description: as §1, §2

[11] = tested on: CAKI-1; experiment: NCI one-dose screen; assay type: cell-based, human; conditions: Renal CAKI-1, 10 µM single dose
Description: as §1, §2

[12] = tested on: HS 578T; experiment: NCI one-dose screen; assay type: cell-based, human; conditions: Breast HS 578T, 10 µM single dose
Description: as §1, §2

[13] = tested on: A549/ATCC; experiment: NCI one-dose screen; assay type: cell-based, human; conditions: NSCLC A549/ATCC, 10 µM single dose
Description: as §1, §2

[14] = tested on: T-47D; experiment: NCI one-dose screen; assay type: cell-based, human; conditions: Breast T-47D, 10 µM single dose
Description: as §1, §2

[15] = tested on: HT29; experiment: NCI one-dose screen; assay type: cell-based, human; conditions: Colon HT29, 10 µM single dose
Description: as §1, §2

[16] = tested on: NCI-H460; experiment: NCI one-dose screen; assay type: cell-based, human; conditions: NSCLC NCI-H460, 10 µM single dose
Description: as §1, §2

[17] = tested on: RPMI-8226; experiment: NCI one-dose screen; assay type: cell-based, human; conditions: Leukemia RPMI-8226, 10 µM single dose
Description: as §1, §2

[18] = tested on: KM12; experiment: NCI one-dose screen; assay type: cell-based, human; conditions: Colon KM12, 10 µM single dose
Description: as §1, §2

[19] = tested on: SF-539; experiment: NCI one-dose screen; assay type: cell-based, human; conditions: CNS SF-539, 10 µM single dose
Description: as §1, §2

[20] = tested on: MDA-MB-435; experiment: NCI one-dose screen; assay type: cell-based, human; conditions: Melanoma MDA-MB-435, 10 µM single dose
Description: as §1, §2

[21] = tested on: M14; experiment: NCI one-dose screen; assay type: cell-based, human; conditions: Melanoma M14, 10 µM single dose
Description: as §1, §2

[22] = tested on: HL-60(TB); experiment: NCI one-dose screen; assay type: cell-based, human; conditions: Leukemia HL-60(TB), 10 µM single dose
Description: as §1, §2

[23] = tested on: SNB-19; experiment: NCI one-dose screen; assay type: cell-based, human; conditions: CNS SNB-19, 10 µM single dose
Description: as §1, §2

[24] = tested on: UO-31; experiment: NCI one-dose screen; assay type: cell-based, human; conditions: Renal UO-31, 10 µM single dose
Description: as §1, §2

[25] = tested on: SK-MEL-2; experiment: NCI one-dose screen; assay type: cell-based, human; conditions: Melanoma SK-MEL-2, 10 µM single dose
Description: as §1, §2

Compound	% Inhibition Hela Nuclear Extracts [1] [%]	Growth Percent [2]	Growth Percent [3]	Growth Percent [4]	Growth Percent [5]	Growth Percent [6]	Growth Percent [7]	Growth Percent [8]	Growth Percent [9]	Growth Percent [10]	Growth Percent [11]	Growth Percent [12]	Growth Percent [13]	Growth Percent [14]	Growth Percent [15]	Growth Percent [16]	Growth Percent [17]	Growth Percent [18]	Growth Percent [19]	Growth Percent [20]	also measured
COc1cccc(NC(=O)Nc2ccc(Nc3ncnc4sc(C(=O)NO)c(C)c34)cc2)c1 [Compound 7b, 1–(4-(6-(hydroxycarbamoyl)-5-methylthieno[2,3-d]pyrimidin-4-ylamino)phenyl)-3–(3-methoxyphenyl)urea]	2	96.7% and 96.74%	94.5% and 94.51%	97.6% and 97.67%	103.7%	100.8% and 100.87%	115.8% and 115.82%	102.7% and 102.72%	128.5% and 128.59%	112.4% and 112.45%	99.4% and 99.45%	102.4% and 102.45%	101.8% and 101.81%	99.6% and 99.67%	103.6% and 103.62%	100.7% and 100.73%	110.6% and 110.62%	102.7% and 102.79%	97.2% and 97.26%	101.5% and 101.59%	Growth Percent [21]: 101.0% and 101.01%; Growth Percent [22]: 103.1% and 103.15%; Growth Percent [23]: 100.1% and 100.14%; Growth Percent [24]: 83.4% and 83.47%; Growth Percent [25]: 100.6% and 100.68%
Cc1c(C(=O)NO)sc2ncnc(Nc3cccc4[nH]cnc34)c12 [Compound 15a, 4-(1H-benzo[d]imidazol-4-ylamino)-N-hydroxy-5-methylthieno[2,3-d]pyrimidine-6-carboxamide]	3	94.2% and 94.26%	103.7%	102.6% and 102.67%	99.4% and 99.43%	112.4% and 112.47%	106% and 106.56%	103.9% and 103.95%	124.5% and 124.53%	104% and 104.07%	92.9% and 92.95%	106.4% and 106.47%	99.5% and 99.51%	108.3% and 108.35%	103.9% and 103.93%	102.7% and 102.72%	112.17%	101.12%	102.5% and 102.52%	101.5% and 101.54%	Growth Percent [21]: 106.5% and 106.58%; Growth Percent [22]: 101.2% and 101.27%; Growth Percent [23]: 98.9% and 98.99%; Growth Percent [24]: 80.6% and 80.64%; Growth Percent [25]: 115.8% and 115.88%
Cc1c(C(=O)NO)sc2ncnc(Nc3ccc(NC(=O)Nc4ccccc4)cc3)c12 [Compound 7a, 1–(4-(6-(hydroxycarbamoyl)-5-methylthieno[2,3-d]pyrimidin-4-ylamino)phenyl)-3-phenylurea]	2	101.7% and 101.73%	96.2% and 96.23%	102.1% and 102.16%	98.4% and 98.47%	115.5% and 115.56%	99.1% and 99.16%	93.8% and 93.86%	122.7% and 122.74%	103.9% and 103.94%	91.6% and 91.67%	97.7% and 97.71%	103.8% and 103.82%	95.7% and 95.72%	94.7% and 94.78%	100.3% and 100.39%	105.4% and 105.45%	94.8% and 94.85%	96.0%	102.0% and 102.09%	Growth Percent [21]: 95.1% and 95.18%; Growth Percent [22]: 102.2% and 102.25%; Growth Percent [23]: 100.2%; Growth Percent [24]: 74.6% and 74.65%; Growth Percent [25]: 107.8%
Cc1c(C(=O)NCCCC(=O)NO)sc2ncnc(Nc3ccc(NC(=O)Nc4ccccc4)cc3)c12 [Compound 12a, 1–(4-(6-((4-(hydroxyamino)-4-oxobutyl)carbamoyl)-5-methylthieno[2,3-d]pyrimidin-4-ylamino)phenyl)-3-phenylurea]	2	99.1% and 99.19%	102.0% and 102.06%	103.7% and 103.79%	99.7% and 99.76%	104.2% and 104.23%	105.3% and 105.35%	99.5%	121.6% and 121.69%	102.6% and 102.68%	92.8% and 92.88%	106.3% and 106.34%	99.6% and 99.69%	103.9% and 103.98%	104.7% and 104.74%	102.6% and 102.61%	110.5% and 110.53%	99.6% and 99.61%	96.5% and 96.54%	101.8% and 101.82%	Growth Percent [21]: 99.0% and 99.09%; Growth Percent [22]: 101.4% and 101.44%; Growth Percent [23]: 97.1% and 97.12%; Growth Percent [24]: 75.3% and 75.33%; Growth Percent [25]: 113.3% and 113.39%
Cc1c(C(=O)NCCC(=O)NO)sc2ncnc(Nc3ccc(Cl)cc3)c12 [Compound 19c, 4–(4-chlorophenylamino)-N-(3-(hydroxyamino)-3-oxopropyl)-5-methylthieno[2,3-d]pyrimidine-6-carboxamide]	7	101.7% and 101.73%	99.7% and 99.97%	105.4% and 105.48%	105.7% and 105.79%	115.4%	101.3% and 101.35%	102.1% and 102.16%	120.6% and 120.62%	108.6% and 108.67%	90.4% and 90.48%	105.8% and 105.84%	107.5% and 107.54%	106.95%	102.2% and 102.22%	100.4% and 100.45%	105.4% and 105.48%	102.0% and 102.09%	99.0%	102.9% and 102.91%	Growth Percent [21]: 107.9% and 107.96%; Growth Percent [22]: 104.5% and 104.56%; Growth Percent [23]: 103.7% and 103.73%; Growth Percent [24]: 79.9% and 79.99%; Growth Percent [25]: 101.8% and 101.81%

— paper PMC8253220, “Molecular design, synthesis and in vitro biological evaluation of thienopyrimidine–hydroxamic acids as chimeric kinase HDAC inhibitors: a challenging approach to combat cancer” (Journal of Enzyme Inhibition and Medicinal Chemistry, 2021)
